Our source for the TGI values is PubChem BioAssay (NCI).

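Interpolation was linear, between the two tested concentrations surrounding the appropriate level; five concentrations were tested over 48 hours in 96-well plates. TGI: total growth inhibition.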

Among the test systems are RXF 393 renal; K-562 leukemia; LOX IMVI melanoma; OVCAR-5 ovarian; SK-OV-3 ovarian; RPMI-8226 leukemia; MDA-MB-435; HCT-116 colon; SF-268 CNS; U251 CNS; BT-549 breast.
Assay in all cases: inhibition of tumour cell growth, NCI panel, 48 h

Regarding `COc1cc(/C=N/c2nc3cc4sc(/N=C/c5cc(OC)c(OC)c(OC)c5)nc4cc3s2)cc(OC)c1OC`, the TGI in the experiment with RXF 393 renal, with K-562 leukemia, in the experiment on LOX IMVI melanoma, with OVCAR-5 ovarian, in the experiment on SK-OV-3 ovarian and with RPMI-8226 leukemia was more than 100 µM in each case. Also, the TGI in the experiment with MDA-MB-435, in the experiment with HCT-116 colon, in the experiment with SF-268 CNS, with U251 CNS and with BT-549 breast was more than 100 µM throughout.

On to `CC(=O)O[C@H]1CC[C@H]2[C@@H]3CCC4=CC(=O)C=C[C@]4(O)[C@H]3CC[C@]12C`, for which the TGI is 76 µM in the experiment on RXF 393 renal; 27.5 µM in the experiment on K-562 leukemia; more than 54.4 µM in the experiment with LOX IMVI melanoma; more than 100 µM with OVCAR-5 ovarian; 44.3 µM with RPMI-8226 leukemia; 49.5 µM in the experiment on MDA-MB-435. The TGI in the experiment with HCT-116 colon is more than 100 µM; with U251 CNS, more than 100 µM; in the experiment with BT-549 breast, more than 79.8 µM.

Take `O=C(Oc1c(Cl)cc(C2(c3cc(Cl)c(OC(=O)c4ccccc4)c(Cl)c3)CCCCC2)cc1Cl)c1ccccc1`: the TGI in the experiment with RXF 393 renal was 25.9 µM; in the experiment on K-562 leukemia it was 31 µM; in the experiment with LOX IMVI melanoma it was 29.1 µM; in the experiment on OVCAR-5 ovarian, 27.4 µM; in the experiment with SK-OV-3 ovarian, 31.2 µM; in the experiment with RPMI-8226 leukemia, 33.3 µM. For the same compound, the TGI with MDA-MB-435 was 24.7 µM; in the experiment with HCT-116 colon, 25.9 µM; in the experiment with SF-268 CNS, 27.2 µM; in the experiment on U251 CNS, 26.8 µM; with BT-549 breast it was 27.9 µM.

In the case of `CN(Cc1cn(O)c2nc(=N)nc(N)c-2n1)c1ccc(C(=O)NC23CC4CC(CC(C4)C2)C3)cc1`, the TGI was 94.9 µM in the experiment with RXF 393 renal; more than 100 µM in the experiment on K-562 leukemia; more than 100 µM in the experiment on LOX IMVI melanoma; more than 100 µM in the experiment with OVCAR-5 ovarian; more than 100 µM in the experiment on SK-OV-3 ovarian; more than 100 µM in the experiment with RPMI-8226 leukemia. The TGI in the experiment with MDA-MB-435 is more than 100 µM; in the experiment on HCT-116 colon, more than 100 µM; with SF-268 CNS it was 81.4 µM; with U251 CNS it was more than 100 µM; in the experiment on BT-549 breast, 79.1 µM.

Take `O=C(CSCC(=O)N/N=C/c1ccccc1)N/N=C\c1ccccc1`: the TGI in the experiment on RXF 393 renal, in the experiment with K-562 leukemia, with LOX IMVI melanoma, in the experiment on OVCAR-5 ovarian, with SK-OV-3 ovarian and in the experiment with RPMI-8226 leukemia was more than 100 µM in each case. For the same compound, the TGI with MDA-MB-435 is more than 100 µM; in the experiment with HCT-116 colon it was more than 100 µM; with SF-268 CNS, more than 100 µM; with U251 CNS it was more than 100 µM; in the experiment on BT-549 breast, 18.9 µM.

`C=C1C(=O)O[C@@H]2/C=C(\C)CC/C=C(\C)CC[C@@]12O`: the TGI was 0.897 µM in the experiment with RXF 393 renal; 12.6 µM in the experiment on K-562 leukemia; 5.23 µM in the experiment on LOX IMVI melanoma; 25.8 µM with OVCAR-5 ovarian; 54.4 µM in the experiment on SK-OV-3 ovarian; 6.43 µM with RPMI-8226 leukemia. Also, the TGI is 7.29 µM with MDA-MB-435; 6.69 µM with HCT-116 colon; 13.8 µM in the experiment with SF-268 CNS; 19.7 µM in the experiment with U251 CNS; 7.81 µM in the experiment with BT-549 breast.

`CCCCN1C(=O)c2c(Br)sc(Br)c2C1=O`: the TGI with RXF 393 renal, in the experiment on K-562 leukemia, in the experiment on LOX IMVI melanoma, in the experiment with OVCAR-5 ovarian, with SK-OV-3 ovarian and with RPMI-8226 leukemia was more than 100 µM each time. Further, the TGI in the experiment with MDA-MB-435 was more than 100 µM; with HCT-116 colon, 65.6 µM; in the experiment on SF-268 CNS it was more than 100 µM; with U251 CNS it was more than 100 µM; with BT-549 breast, more than 100 µM.

Turning to `CNC1Cc2c[nH]c3cccc(c23)C12C=C(C)C(=O)O2` (stereo unspecified), the TGI in the experiment with RXF 393 renal, in the experiment on K-562 leukemia, in the experiment on LOX IMVI melanoma, in the experiment on OVCAR-5 ovarian, with SK-OV-3 ovarian and with RPMI-8226 leukemia was more than 100 µM throughout. Moreover, the TGI in the experiment with MDA-MB-435, with HCT-116 colon, with SF-268 CNS, in the experiment on U251 CNS and with BT-549 breast was more than 100 µM each time.

With `CC(C)CCCC(C)[C@H]1CC[C@H]2n3c(nc4ccccc43)CCC[C@]12C` (stereo partly specified), the TGI is 33.5 µM in the experiment with RXF 393 renal; 36.5 µM with K-562 leukemia; more than 100 µM with LOX IMVI melanoma; 30.9 µM with SK-OV-3 ovarian; 33.9 µM in the experiment with RPMI-8226 leukemia; 38.6 µM with MDA-MB-435. Moreover, the TGI in the experiment with HCT-116 colon worked out at 53.4 µM; in the experiment on SF-268 CNS, 43 µM; with U251 CNS, 42.6 µM; in the experiment with BT-549 breast it was 35.7 µM.

For `O=C(NCCC1CN(C(=O)OCc2ccccc2)c2ccccc21)OCc1ccccc1` (stereo unspecified), the TGI with RXF 393 renal, in the experiment with K-562 leukemia, with OVCAR-5 ovarian, in the experiment on SK-OV-3 ovarian, in the experiment on RPMI-8226 leukemia and with MDA-MB-435 was more than 100 µM throughout. Further, the TGI in the experiment on HCT-116 colon, in the experiment with SF-268 CNS, in the experiment with U251 CNS and in the experiment on BT-549 breast was more than 100 µM in each case.

For the compound `CCc1n[nH]c(=O)n1/N=C(\C)c1ccc([N+](=O)[O-])cc1`, the TGI in the experiment with RXF 393 renal, in the experiment on K-562 leukemia, in the experiment with LOX IMVI melanoma, in the experiment with OVCAR-5 ovarian, with RPMI-8226 leukemia and in the experiment with MDA-MB-435 was more than 100 µM throughout. In addition, the TGI in the experiment with HCT-116 colon, in the experiment on SF-268 CNS, in the experiment on U251 CNS and in the experiment with BT-549 breast was more than 100 µM throughout.
